Where two headings read alike, the source gives them in different places.
Legend:
[1] = system: erythrocytic stage P. falciparum parasites (strain 3D7); assay: SYBR Green I-based in vitro growth assay (96 h); type: cell-based, Plasmodium falciparum; settings: for IC50: 1 µM pantothenate, 96 h; for effect on parasite growth in fresh Albumax-complete RPMI: fresh medium, up to 200 µM (highest concentration tested)
Procedure: Erythrocytic stage P. falciparum parasites (strain 3D7) were maintained within human erythrocytes in continuous culture essentially as described previously, [25]. P. falciparum-infected erythrocytes were routinely cultured in RPMI 1640 medium supplemented with 25 mM HEPES, 20 mM D-glucose, 200 µM hypoxanthine, 24 mg/L gentamycin and Albumax II (0.6%, w/v), which, hereafter is referred to as Albumax-complete RPMI. For several days prior to carrying out the assays testing the effect of compounds on the growth of P. falciparum in medium supplemented with human serum (instead of Albumax II), the parasites were cultured in the same medium mentioned above, except that human serum (10%, v/v, pooled from different blood donors) was used rather than Albumax II. This medium is hereafter referred to as human serum-complete RPMI.
The in vitro antiplasmodial activity of test compounds was determined using the malaria SYBR Green I-based fluorescence assay described by Smilkstein et al., with minor modifications. Briefly, P. falciparum-infected erythrocytes were incubated in culture medium containing two-fold dilutions of the test compounds in 96-well microtiter plates. Assays were initiated with ring-stage P. falciparum-infected erythrocytes at a hematocrit and parasitemia of 1%. Wells containing infected erythrocytes in the presence of chloroquine (0.25–2 µM) served as zero growth controls and wells containing infected erythrocytes in the absence of chloroquine or test compounds served as 100% parasite growth controls. Plates were incubated at 37°C under an atmosphere of 96% nitrogen, 3% carbon dioxide and 1% oxygen for 96 h, before 100 µL from each well was mixed with 100 µL of SYBR Safe DNA gel stain (0.2 µL/mL) in 20 mM Tris, pH 7.5, 5 mM ethylenediaminetetraacetic acid (EDTA), 0.008% (w/v) saponin, 0.08% (v/v) Triton X-100, in a second 96-well microtitre plate. Fluorescence was measured using a FLUOstar OPTIMA multidetection microplate reader from BMG LABTECH with excitation and emission wavelengths of 490 and 520 nm, respectively. The 50% inhibitory concentration (IC50) of each test compound under each test condition was calculated by fitting the data to a sigmoidal curve (typically y = a/(1+ (x/x0)^b) using nonlinear least squares regression (SigmaPlot, Systat Software) and averaging the IC50 estimates from independent experiments.
The antiplasmodial activity of test compounds was assessed in media that had been subjected to different pre-incubations. “Fresh” medium refers to medium that was stored for a maximum of 48 h at 4°C, and incubated at 37°C for a maximum of 1 h, prior to use. “Aged” medium refers to medium that was stored for a minimum of one week at 4°C and incubated intermittently at 37°C, or medium incubated continuously at 37°C for 40 h soon after preparation. As indicated at the relevant positions within the “Results” section, for some experiments the fresh medium used was, more specifically, medium used immediately following preparation, and the aged medium used was, more specifically, medium that was incubated at 37°C for 40 h immediately prior to use.

P. falciparum PanK = assay: [14C]pantothenate phosphorylation assay with P. falciparum lysate; type: biochemical, Plasmodium falciparum; settings: 100 µM pantothenamide, 0.2 µM [14C]pantothenate, 10 min
Procedure: To assess the effect of the pantothenamides on pantothenate phosphorylation by P. falciparum PanK, the phosphorylation of [^14C]pantothenate by P. falciparum lysates was measured in the presence and absence of a single concentration of each pantothenamide. P. falciparum lysate was prepared from trophozoite stage parasites “isolated” from their host erythrocyte by treatment with 0.05% (w/v) saponin (essentially as described by Saliba et al.), and washed (five times) in HEPES-buffered saline (125 mM NaCl, 5 mM KCl, 20 mM D-glucose, 25 mM HEPES, 1 mM MgCl2, pH 7.1). Lysates were prepared as described by van Schalkwyk et al., except that 10 mM potassium phosphate, pH 7.4 (rather than 10 mM Tris, pH 7.4), was used to lyse the cells. Aliquots of lysate were stored at −20°C. The concentration of cell lysates was determined from cell counts made using an improved Neubauer hemocytometer.
[^14C]Pantothenate phosphorylation was assayed using the Somogyi reagent essentially as described by Saliba et al., except that pantothenate phosphorylation was terminated by heat denaturation (rather than acid denaturation) of the protein in reaction aliquots. Briefly, P. falciparum lysate was added to solutions (at 37°C) of 50 mM Tris, 5 mM ATP, 5 mM MgCl2, at pH 7.4, containing [^14C]pantothenate (at a final concentration of 0.01 µCi/mL, or 0.2 µM), and a pantothenamide (at a final concentration of 100 µM) or an equivalent volume of solvent. Typically, lysate prepared from 5.4–6.5×10^7 parasites was present in each mL of reaction solution. Zero phosphorylation control reactions were prepared by adding a corresponding volume of 10 mM potassium phosphate instead of parasite lysate. Following a ten minute incubation at 37°C (a period during which pantothenate phosphorylation increased linearly with time in the absence of inhibitors) 200 µL aliquots of the [^14C]pantothenate phosphorylation reactions were transferred in duplicate to microcentrifuge tubes, and immediately incubated at 95°C for 10 min to terminate phosphorylation. Terminated reaction samples were centrifuged at 15 800×g for 10 min to pellet the denatured protein, before two aliquots of each supernatant (typically 80 µL) were transferred to new microcentrifuge tubes. To one aliquot, 500 µL Somogyi reagent was added, and to the other, 500 µL water was added. The samples were processed for determination of phosphorylated [^14C]pantothenate as described previously.

[2] = Plasmodium falciparum, 3D7, 96 h, fresh Albumax-complete RPMI, read-out: IC50 against P. falciparum, fresh medium, 1 μM pantothenate
[3] = Plasmodium falciparum, 3D7, aged Albumax-complete RPMI (37°C for 40 h), read-out: IC50 against P. falciparum, aged medium, 1 μM pantothenate
[4] = fresh Albumax-complete RPMI, IC50 at 100 µM pantothenate / IC50 at 1 µM pantothenate

| Structure (SMILES) | IC50 [1, 2] | IC50 [1, 3] | Inhibition of pantothenate phosphorylation at 100 μM (P. falciparum PanK) | further results |
| --- | --- | --- | --- | --- |
| CCCCCNC(=O)CCNC(=O)[C@H](O)C(C)(C)CO [Compound 1] | 124 ± 15 µM | 2 ± 0.2 µM | 99 ± 1% | – |
| CCCCCCCNC(=O)CCNC(=O)[C@H](O)C(C)(C)CO [Compound 2] | > 200 µM | – | 99 ± 1% | – |
| CC(C)(CO)[C@@H](O)C(=O)NCCC(=O)NCCc1ccccc1 [Compound 3] | – | – | 100% | IC50 ([1]; Plasmodium falciparum, 3D7, 96 h, aged Albumax-complete RPMI, read-out: IC50 against P. falciparum in aged medium): 0.02 ± 0.002 µM |
| COc1ccc(CCNC(=O)CCNC(=O)[C@H](O)C(C)(C)CO)cc1OC [Compound 4] | > 200 µM | > 200 µM | 100% | – |
| CC(CCc1ccccc1)NC(=O)CCNC(=O)[C@H](O)C(C)(C)CO (some centres unmarked) [Compound 5] | > 200 µM | > 200 µM | 94 ± 3% | – |
| COc1cc(CNC(=O)CCNC(=O)[C@H](O)C(C)(C)CO)cc(OC)c1OC [Compound 6] | > 200 µM | > 200 µM | 96 ± 2% | – |
| CC(C)(CO)[C@@H](O)C(=O)NCCC(=O)N1CCN(Cc2ccccc2)CC1 [Compound 7] | > 200 µM | > 200 µM | 98 ± 2% | – |
| CC(C)(CO)[C@@H](O)C(=O)NCCC(=O)NCCN1CCOCC1 [Compound 8] | > 200 µM | > 200 µM | 94 ± 5% | – |
| COc1ccc(CNC(=O)CCNC(=O)[C@H](O)C(C)(C)CO)cc1 [Compound 9] | > 200 µM | – | 99 ± 1% | – |
| CC1C(NC(=O)CCNC(=O)C(O)C(C)(C)CO)CC2CC1C2(C)C (centres unmarked) [Compound 10] | > 200 µM | > 200 µM | 100% | – |
| CCCNC(=O)CCNC(=O)[C@H](O)C(C)(C)CO [Compound 11] | 134 ± 22 µM | 0.34 ± 0.01 µM | 100% | – |
| CC(C)=CCC/C(C)=C/CNC(=O)CCNC(=O)[C@H](O)C(C)(C)CO [Compound 13] | 66 ± 4 µM | 150 ± 5 µM | 100% | fold-increase in IC50 following supplementation with 100 µM pantothenate, fresh medium [1, 4]: 1±0.1 times |
| CSCCNC(=O)CCNC(=O)[C@H](O)C(C)(C)CO [Compound 14] | > 200 µM | > 200 µM | 100% | effect on parasite growth in fresh Albumax-complete RPMI [1]: little effect |
| COCCNC(=O)CCNC(=O)[C@H](O)C(C)(C)CO [Compound 15] | > 200 µM | > 200 µM | 100% | effect on parasite growth in fresh Albumax-complete RPMI [1]: lacked antiplasmodial activity |
| CC(C)(CO)[C@@H](O)C(=O)NCCC(=O)NCCO [Compound 16] | > 200 µM | – | 100% | effect on parasite growth in fresh Albumax-complete RPMI [1]: without effect |
| CCSCCNC(=O)CCNC(=O)[C@H](O)C(C)(C)CO [Compound 17] | 44 ± 5 µM | 0.067 ± 0.002 µM | 95 ± 5% | – |
| CSCCCNC(=O)CCNC(=O)[C@H](O)C(C)(C)CO [Compound 18] | 76 ± 12 µM | 0.23 ± 0.06 µM | 98 ± 2% | – |
| CCOCCCNC(=O)CCNC(=O)[C@H](O)C(C)(C)CO [Compound 19] | 49 ± 8 µM | 0.27 ± 0.06 µM | 96 ± 4% | fold-increase in IC50 following supplementation with 100 µM pantothenate, aged medium ([1]; aged Albumax-complete RPMI, IC50 at 100 µM pantothenate / IC50 at 1 µM pantothenate): 24±1 times; fold-increase in IC50 following supplementation with 100 µM pantothenate, fresh medium [1, 4]: 1.7±0.4 times |
| CC(C)(CO)[C@@H](O)C(=O)NCCC(=O)NCCCO [Compound 20] | > 200 µM | – | 94 ± 6% | effect on parasite growth in fresh Albumax-complete RPMI [1]: without effect |
| COCCCNC(=O)CCNC(=O)[C@H](O)C(C)(C)CO [Compound 21] | 166 ± 18 µM | 1.9 ± 0.5 µM | 98 ± 2% | – |
| CCOCCNC(=O)CCNC(=O)[C@H](O)C(C)(C)CO [Compound 22] | 162 ± 20 µM | 1.4 ± 0.1 µM | 100% | – |
| CC(C)(CO)[C@@H](O)C(=O)NCCCO [pantothenol, reference compound] | – | – | – | inhibition at 2000 µM ([1]; Plasmodium falciparum, 3D7, 2 mM, Albumax-complete RPMI supplemented with 100 µM pantothenate, fresh and aged, read-out: inhibition of growth at highest concentration tested with 100 µM pantothenate): < 50%; effect of additional Albumax II on activity in aged medium ([1]; aged medium + additional Albumax II (0.6%, w/v)): unaffected; activity in aged versus fresh Albumax-complete RPMI ([1]; aged vs fresh medium, P = 0.32): comparable in aged and fresh medium |

From article PMC3566143, “Pantothenamides Are Potent, On-Target Inhibitors of Plasmodium falciparum Growth When Serum Pantetheinase Is Inactivated” (PLoS ONE, 2013)
